# Data published in patent publication US20130040882A1, “USE OF FIBROBLAST GROWTH FACTOR FRAGMENTS” (NOVARTIS AG, priority 2003, published 2013).
# System: uterine gene expression
# Test: Gene expression profiling (HGU133A) in the uterus of ovariectomized monkeys treated with estradiol, tamoxifen or raloxifene
# Format: in vivo, cynomolgus monkeys (Macaca fascicularis)
# Conditions: uterus, OVX monkeys
compound,measurement,setting,value
O=C(c1ccc(OCCN2CCCCC2)cc1)c1c(-c2ccc(O)cc2)sc2cc(O)ccc12 [raloxifene],Fold change relative to SHAM control: Fibulin 1,,0.8 fold
same,Fold change relative to SHAM control: G1 to S phase transition 1,,0.7 fold
same,Fold change relative to SHAM control: Growth associated protein 43,,0.7 fold
same,"Fold change relative to SHAM control: H2A histone family, member Y",,0.8 fold
same,Fold change relative to SHAM control: Heparan sulfate proteoglycan 2 (perlecan),,0.6 fold
same,Fold change relative to SHAM control: Histone H2A.F/Z variant,,1.0 fold
same,"Fold change relative to SHAM control: Insulin-like growth factor binding protein 2, 36 kda",,0.7 fold
same,Fold change relative to SHAM control: Insulin-like growth factor binding protein 5,,1.1 fold
same,"Fold change relative to SHAM control: Intercrine-alpha, mrna sequence",,0.8 fold
same,"Fold change relative to SHAM control: Laminin, beta 1",,0.8 fold
same,Fold change relative to SHAM control: Latent transforming growth factor beta binding protein 1,,0.8 fold
same,Fold change relative to SHAM control: Matrix metalloproteinase 19,,0.2 fold
same,Fold change relative to SHAM control: Nidogen (enactin),,1.7 fold
same,"Fold change relative to SHAM control: Osteoglycin (osteoinductive factor, mimecan)",,0.7 fold
same,Fold change relative to SHAM control: Peroxiredoxin 1,,0.8 fold
same,Fold change relative to SHAM control: Pituitary tumour-transforming 1 interacting protein,,0.7 fold
same,Fold change relative to SHAM control: Procollagen C-endopeptidase enhancer,,0.8 fold
same,"Fold change relative to SHAM control: Procollagen-proline, 2-oxoglutarate 4-dioxygenase (proline 4-hydroxylase), alpha polypeptide II",,0.8 fold
same,"Fold change relative to SHAM control: SET domain, bifurcated 1",,0.8 fold
same,"Fold change relative to SHAM control: SPARC-like 1 (mast9, hevin)",,1.1 fold
same,"Fold change relative to SHAM control: Secreted protein, acidic, cysteine-rich (osteonectin)",,0.8 fold
same,"Fold change relative to SHAM control: Serine (or cysteine) proteinase inhibitor, clade H (heat shock protein 47), member 1, (collagen binding protein 1)",,0.7 fold
same,"Fold change relative to SHAM control: Solute carrier family 22 (organic cation transporter), member 1-like",,0.8 fold
same,"Fold change relative to SHAM control: Solute carrier family 25 (mitochondrial carrier; adenine nucleotide translocator), member 5",,0.8 fold
same,Fold change relative to SHAM control: Stem cell growth factor; lymphocyte secreted C-type lectin,,0.7 fold
same,Fold change relative to SHAM control: Tenascin C (hexabrachion),,0.8 fold
same,Fold change relative to SHAM control: Testis Enhanced Gene Transcript (Bax Inhibitor 1),,1.1 fold
same,Fold change relative to SHAM control: Thioredoxin interacting protein,,1.7 fold
same,"Fold change relative to SHAM control: Transforming growth factor, beta-induced, 68 kda",,0.8 fold
same,"Fold change relative to SHAM control: Ubiquinol-cytochrome c reductase, Rieske iron-sulfur polypeptide 1",,0.8 fold
same,Fold change relative to OVX: Insulin receptor,Table 46,0.9 fold
same,Fold change relative to OVX: Insulin receptor,Table 51,0.9 fold
same,Fold change relative to SHAM control: Insulin receptor,Table 51,1.4 fold
same,Fold change relative to OVX: Fibronectin 1,entry with OVX average 39,2.3 fold
same,Fold change relative to OVX: Bone morphogenetic protein 1,entry with OVX average 79,1.2 fold
same,Fold change relative to OVX: Bone morphogenetic protein 1,entry with OVX average 93,1.4 fold
same,Fold change relative to OVX: Insulin-like growth factor 1 (somatomedin C),entry with OVX average 102,1.5 fold
same,Fold change relative to OVX: Fibrillin 1 (Marfan syndrome),entry with OVX average 124,2.1 fold
same,"Fold change relative to OVX: Collagen, type I, alpha 2",entry with OVX average 154,3.2 fold
same,Fold change relative to OVX: Insulin-like growth factor 1 (somatomedin C),entry with OVX average 156,2.2 fold
same,"Fold change relative to OVX: Solute carrier family 2 (facilitated glucose/fructose transporter), member 5",entry with OVX average 171,1.2 fold
same,"Fold change relative to OVX: Solute carrier family 2 (facilitated glucose/fructose transporter), member 5",entry with OVX average 176,1.0 fold
same,"Fold change relative to OVX: Collagen, type IV, alpha 1",entry with OVX average 182,1.8 fold
same,"Fold change relative to OVX: Cyclin-dependent kinase inhibitor 1C (p57, Kip2)",entry with OVX average 224,0.9 fold
same,Fold change relative to OVX: Insulin-like growth factor 1 (somatomedin C),entry with OVX average 310,2.3 fold
same,Fold change relative to OVX: Fibronectin 1,entry with OVX average 419,2.2 fold
same,"Fold change relative to OVX: Cyclin-dependent kinase inhibitor 1C (p57, Kip2)",entry with OVX average 527,1.2 fold
same,Fold change relative to OVX: Fibronectin 1,entry with OVX average 586,2.2 fold
same,Fold change relative to OVX: Fibronectin 1,entry with OVX average 648,1.7 fold
same,"Fold change relative to OVX: Collagen, type IV, alpha 1",entry with OVX average 690,1.2 fold
same,Fold change relative to OVX: Fibronectin 1,entry with OVX average 757,1.9 fold
same,"Fold change relative to OVX: Cyclin-dependent kinase inhibitor 1C (p57, Kip2)",entry with OVX average 762,1.1 fold
same,"Fold change relative to OVX: ATP synthase, H+ transporting, mitochondrial F0 complex, subunit c (subunit 9) isoform 3",entry with OVX average 811,1.2 fold
same,Fold change relative to OVX: Fibrillin 1 (Marfan syndrome),entry with OVX average 874,1.5 fold
same,"Fold change relative to OVX: ATP synthase, H+ transporting, mitochondrial F0 complex, subunit c (subunit 9) isoform 3",entry with OVX average 1007,1.2 fold
same,"Fold change relative to OVX: Collagen, type III, alpha 1 (Ehlers-Danlos syndrome type IV, autosomal dominant)",entry with OVX average 1084,1.9 fold
same,"Fold change relative to OVX: Collagen, type I, alpha 2",entry with OVX average 2757,2.2 fold
same,"Fold change relative to OVX: Collagen, type III, alpha 1 (Ehlers-Danlos syndrome type IV, autosomal dominant)",entry with OVX average 3445,2.0 fold
same,"Fold change relative to OVX: H3 histone, family 3A",entry with OVX average 9495,0.9 fold
same,"Fold change relative to OVX: H3 histone, family 3A",entry with OVX average 9692,1.0 fold
same,Fold change relative to SHAM control: Fibronectin 1,entry with SHAM average 100,0.9 fold
same,Fold change relative to SHAM control: Bone morphogenetic protein 1,entry with SHAM average 143,0.7 fold
same,"Fold change relative to SHAM control: Cyclin-dependent kinase inhibitor 1C (p57, Kip2)",entry with SHAM average 201,1.0 fold
same,Fold change relative to SHAM control: Bone morphogenetic protein 1,entry with SHAM average 205,0.6 fold
same,Fold change relative to SHAM control: Insulin-like growth factor 1 (somatomedin C),entry with SHAM average 226,0.7 fold
same,Fold change relative to SHAM control: Fibrillin 1 (Marfan syndrome),entry with SHAM average 236,1.1 fold
same,"Fold change relative to SHAM control: Solute carrier family 2 (facilitated glucose/fructose transporter), member 5",entry with SHAM average 291,0.6 fold
same,"Fold change relative to SHAM control: Solute carrier family 2 (facilitated glucose/fructose transporter), member 5",entry with SHAM average 317,0.7 fold
same,Fold change relative to SHAM control: Insulin-like growth factor 1 (somatomedin C),entry with SHAM average 417,0.8 fold
same,"Fold change relative to SHAM control: Collagen, type IV, alpha 1",entry with SHAM average 436,0.7 fold
same,"Fold change relative to SHAM control: Cyclin-dependent kinase inhibitor 1C (p57, Kip2)",entry with SHAM average 459,1.4 fold
same,"Fold change relative to SHAM control: Collagen, type I, alpha 2",entry with SHAM average 493,1.0 fold
same,Fold change relative to SHAM control: Insulin-like growth factor 1 (somatomedin C),entry with SHAM average 581,1.2 fold
same,"Fold change relative to SHAM control: Cyclin-dependent kinase inhibitor 1C (p57, Kip2)",entry with SHAM average 660,1.3 fold
same,Fold change relative to SHAM control: Fibronectin 1,entry with SHAM average 920,1.0 fold
same,"Fold change relative to SHAM control: ATP synthase, H+ transporting, mitochondrial F0 complex, subunit c (subunit 9) isoform 3",entry with SHAM average 1045,0.9 fold
same,Fold change relative to SHAM control: Fibronectin 1,entry with SHAM average 1089,1.2 fold
same,"Fold change relative to SHAM control: Collagen, type IV, alpha 1",entry with SHAM average 1143,0.7 fold
same,Fold change relative to SHAM control: Fibronectin 1,entry with SHAM average 1288,0.9 fold
same,Fold change relative to SHAM control: Fibronectin 1,entry with SHAM average 1301,1.1 fold
same,"Fold change relative to SHAM control: ATP synthase, H+ transporting, mitochondrial F0 complex, subunit c (subunit 9) isoform 3",entry with SHAM average 1355,0.9 fold
same,Fold change relative to SHAM control: Fibrillin 1 (Marfan syndrome),entry with SHAM average 1388,1.0 fold
same,"Fold change relative to SHAM control: Collagen, type III, alpha 1 (Ehlers-Danlos syndrome type IV, autosomal dominant)",entry with SHAM average 2992,0.7 fold
same,"Fold change relative to SHAM control: Collagen, type III, alpha 1 (Ehlers-Danlos syndrome type IV, autosomal dominant)",entry with SHAM average 7354,1.0 fold
same,"Fold change relative to SHAM control: Collagen, type I, alpha 2",entry with SHAM average 7758,0.8 fold
same,"Fold change relative to SHAM control: H3 histone, family 3A",entry with SHAM average 9408,0.9 fold
same,"Fold change relative to SHAM control: H3 histone, family 3A",entry with SHAM average 10239,1.0 fold
